From patent publication US5378706A, “Fused-thiazole derivatives active on the cholinergic system, and pharmaceutical compositions containing same” (Sanofi, priority 1987, dated 1995)
Where two headings read alike, the source gives them in different places.

Assays:
[1] = biological target: T1, M1 -type muscarinic cholinergic receptor (Rattus norvegicus, UniProt P08482); test: biochemical; assay type: binding; conditions: for ratio R of the IC50 values for the M1 and M2 receptors: selectivity, values correspond to IC50 M2 / IC50 M1
T1 sequence (P08482 1-460): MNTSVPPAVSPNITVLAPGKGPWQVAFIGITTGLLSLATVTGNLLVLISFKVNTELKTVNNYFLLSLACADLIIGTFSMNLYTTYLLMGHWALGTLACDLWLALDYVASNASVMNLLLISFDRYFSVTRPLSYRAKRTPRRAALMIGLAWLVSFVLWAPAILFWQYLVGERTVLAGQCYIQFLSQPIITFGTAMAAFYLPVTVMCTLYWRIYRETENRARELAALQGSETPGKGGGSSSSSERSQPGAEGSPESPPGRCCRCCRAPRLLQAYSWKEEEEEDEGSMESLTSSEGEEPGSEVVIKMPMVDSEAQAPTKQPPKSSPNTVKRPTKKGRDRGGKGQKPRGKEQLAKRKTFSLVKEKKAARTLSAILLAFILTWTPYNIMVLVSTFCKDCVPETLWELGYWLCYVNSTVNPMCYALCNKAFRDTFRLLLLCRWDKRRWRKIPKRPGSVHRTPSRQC
Method: The interaction of the molecules with the M1 -type muscarinic receptors was studied by in vitro measurement, on a rat hippocampus homogenate, of the displacement of tritiated pirenzepine from its specific binding sites. Aliquots (10 μl) of a 5% (w/v) rat hippocampus homogenate in an Na2 HPO4 buffer (50 mM, pH 7.40) are incubated for 2 hours at 4° C. in the presence of ^3 H-PZ (76 Ci/mmol; final concentration 1 nM) and increasing concentrations of the test product. The final volume is 2 ml. The reaction is stopped by centrifugation for 10 minutes at 50,000×g. After decantation and washing of the residues, the bound radioactivity is counted by liquid scintillation. The non-specific binding is determined in the presence of 10 μM atropine sulfate.

[2] = biological target: T2, M2 -type muscarinic cholinergic receptor (Cavia porcellus, UniProt H0VRN8); test: Affinity for the M2-type muscarinic cholinergic receptor, displacement of tritiated N-methylscopolamine (3H-NMS) on smooth guinea-pig ileum muscle homogenate; assay type: binding
T2 construct: on a smooth guinea-pig ileum muscle homogenate; from tissue; host or cells: guinea-pig ileum smooth muscle homogenate
T2 sequence (H0VRN8 1-466): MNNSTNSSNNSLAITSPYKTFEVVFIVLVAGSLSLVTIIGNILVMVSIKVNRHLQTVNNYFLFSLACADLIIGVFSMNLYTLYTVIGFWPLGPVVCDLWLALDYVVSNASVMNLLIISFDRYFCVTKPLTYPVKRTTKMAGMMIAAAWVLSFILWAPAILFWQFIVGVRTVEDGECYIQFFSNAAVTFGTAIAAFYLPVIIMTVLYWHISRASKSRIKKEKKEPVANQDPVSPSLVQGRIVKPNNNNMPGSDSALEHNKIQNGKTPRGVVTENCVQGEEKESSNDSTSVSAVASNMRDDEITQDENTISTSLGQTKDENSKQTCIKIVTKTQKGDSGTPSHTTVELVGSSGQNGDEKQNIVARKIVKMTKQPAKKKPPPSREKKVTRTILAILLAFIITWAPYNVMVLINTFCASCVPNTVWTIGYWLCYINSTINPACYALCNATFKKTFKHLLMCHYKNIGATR
Method: The M1 -type receptors are concentrated in certain regions of the brain, such as the hippocampus, the cerebral cortex and the striatum, and also in the sympathetic ganglia. These binding sites can be selectively labeled with tritiated pirenzepine (^3 H-PZ). The M2 -type receptors predominate in the heart and the ileum and can be labeled with tritiated N-methyl-scopolamine (^3 H-NMS). The selectivity of the products of the invention with respect to the M1 and M2 sites was determined by studying their in vitro interaction with ^3 H-PZ and ^3 H-NMS firmly bound with a high affinity to rat hippocampus membranes and smooth guinea-pig ileum muscle, respectively.
The interaction with the M2 -type muscarinic receptors was studied by in vitro measurement, on a smooth guinea-pig ileum muscle homogenate, of the displacement of tritiated N-methylscopolamine from its specific binding sites. […] The final volume is 1 ml. The reaction is stopped by centrifugation for 5 minutes at 15,000×g. The non-specific binding is determined in the presence of 10 mM atropine sulfate.
The IC50 for ^3 H-PZ displacement represents the affinity for the M1 receptor; the IC50 for ^3 H-NMS displacement represents the affinity for the M2 receptor.

[3] = tested on: M1 central muscarinic cholinergic receptors; test: Antagonism of rotations induced by intrastriatal injection of pirenzepine in mice; assay type: in vivo, mice (Swiss, CD 1); conditions: for Pirenzepine antagonism ED50 i.p.: 15 minutes before intrastriatal pirenzepine 1 μg; for Pirenzepine antagonism ED50 p.o.: 30 minutes before intrastriatal pirenzepine 1 μg
Method: Pirenzepine (PZ) is a specific antagonist of the M1 central muscarinic cholinergic receptors. The intrastriatal injection of PZ into mice induces rotatory behavoir. The antagonism of this behavoir by the products according to the invention was studied.
The products according to the invention are administered either intraperitoneally (i.p.) or orally (p.o.) after solubilization in distilled water or suspension in a 5% solution of gum arabic. The control animals receive the pure solvent under the same conditions.
The animals used are female mice (Swiss, CD 1, Charles River, France) with a body weight of between 25 and 30 grams.
The pirenzepine is dissolved in a phosphate buffer and the pH of the solution is 6.
The test products or their solvents are administered in a volume of 0.4 ml per 20 g of body weight, either by i.p. injection or orally via an esophageal tube.
The number of contralateral rotations (rotations in the opposite direction to the side injected) was counted for three 2-minute periods after injection of the pirenzepine: 2nd to 4th, 8th to 10th and 13th to 15th minutes. Each treatment consists of 3 to 4 doses and 10 animals per dose. The total number of rotations and the percentage antagonism with respect to the control group are calculated for each treatment.

[4] = Acute toxicity, 24 hours mortality after i.p. administration to mice; conditions: mouse, in vivo, ip, female mice, 20 g
Method: Finally, the acute toxicity was determined for various products according to the invention. The products were administered intraperitoneally in increasing doses to groups of 10 female mice (Swiss, CD 1, Charles River, France) with a body weight of 20 g.

[5] = rat hippocampus homogenate, 3H-PZ 1 nM, 2 hours at 4° C., pH 7.40, read-out: IC50 3H-PZ (M1)
[6] = guinea-pig ileum smooth muscle homogenate, 3H-NMS 0.3 nM, 20 minutes at 30° C., pH 7.5, read-out: IC50 3H-NMS (M2)

CCN(CC)CCNc1nc2c(s1)CCc1ccccc1-2 [SR 44393 A]
IC50 [1, 5]: 2.7 µM
ratio R of the IC50 values for the M1 and M2 receptors [1]: 15
IC50 [2, 6]: 42 µM
Pirenzepine antagonism ED50 i.p. [3]: 3 mg/kg

CCN(CC)CCCNc1nc(-c2ccccc2)c(-c2ccccc2)s1 [SR 44435 A]
IC50 [1, 5]: 0.36 µM
ratio R of the IC50 values for the M1 and M2 receptors [1]: 8
IC50 [2, 6]: 3 µM
Pirenzepine antagonism ED50 i.p. [3]: 2 mg/kg

COC(=O)C1=CCCN(C)C1 [Arecoline, reference compound]
IC50 [2]: 4.5 µM
Pirenzepine antagonism ED50 i.p. [3]: 1 mg/kg
Pirenzepine antagonism ED50 p.o. [3]: 0.5 mg/kg

CN(C)CCCNc1nc(-c2ccc(Cl)cc2)cs1 [SR 44493 A]
IC50 [1, 5]: 1.6 µM
ratio R of the IC50 values for the M1 and M2 receptors [1]: 28
IC50 [2, 6]: 45 µM
Pirenzepine antagonism ED50 p.o. [3]: 0.3 mg/kg

CN1CCN(CCCNc2nc(-c3ccc(F)cc3)cs2)CC1 [SR 44862 A]
IC50 [1, 5]: 3 µM
ratio R of the IC50 values for the M1 and M2 receptors [1]: 11
IC50 [2, 6]: 34 µM
Pirenzepine antagonism ED50 p.o. [3]: 3 mg/kg

CCN(CC)CCCNc1nc(-c2ccc3ccccc3c2)cs1 [SR 44573 A]
IC50 [1, 5]: 1.8 µM
ratio R of the IC50 values for the M1 and M2 receptors [1]: 7
IC50 [2, 6]: 13 µM
Pirenzepine antagonism ED50 p.o. [3]: 2.50 mg/kg

Cc1cc(C)c(-c2csc(NCc3cccnc3)n2)c(C)c1 [SR 44839 A]
IC50 [1, 5]: 0.4 µM
ratio R of the IC50 values for the M1 and M2 receptors [1]: 250
IC50 [2, 6]: 100 µM
Pirenzepine antagonism ED50 p.o. [3]: 0.2 mg/kg

CN(C)CCCNc1nc(Cc2ccccc2)c(-c2ccccc2)s1 [SR 45016 A]
IC50 [1, 5]: 0.1 µM
ratio R of the IC50 values for the M1 and M2 receptors [1]: 55
IC50 [2, 6]: 5.5 µM
Pirenzepine antagonism ED50 p.o. [3]: 2 mg/kg

CN(C)CCCNc1nc(-c2ccc(F)cc2F)cs1 [SR 44770 A]
IC50 [1, 5]: 0.6 µM
ratio R of the IC50 values for the M1 and M2 receptors [1]: 43
IC50 [2, 6]: 26 µM
Pirenzepine antagonism ED50 p.o. [3]: 3 mg/kg

CN(C)CCCNc1nc(-c2ccc(Cl)cc2Cl)cs1 [SR 44749 A]
IC50 [1, 5]: 1.8 µM
ratio R of the IC50 values for the M1 and M2 receptors [1]: 14
IC50 [2, 6]: 26 µM
Pirenzepine antagonism ED50 p.o. [3]: 3 mg/kg

Cc1cc(C)c(-c2csc(NCCCN(C)C)n2)c(C)c1 [SR 44421 A]
IC50 [1, 5]: 3.6 µM
ratio R of the IC50 values for the M1 and M2 receptors [1]: > 27
IC50 [2, 6]: > 100 µM
Pirenzepine antagonism ED50 p.o. [3]: 0.2 mg/kg

CN(C)CCCNc1nc2c(s1)CCCc1ccccc1-2 [SR 44327 A]
IC50 [1, 5]: 1.9 µM
ratio R of the IC50 values for the M1 and M2 receptors [1]: 20
IC50 [2, 6]: 38 µM
Pirenzepine antagonism ED50 i.p. [3]: 10 mg/kg

Cc1sc(NCCCN)nc1-c1ccccc1.Cl.Cl [SR 44514 A, 2-[(3-Aminopropyl)amino]-5-methyl-4-phenylthiazole dihydrochloride]
IC50 ([1]; read-out: IC50 3H-PZ (M1)): 0.5 µM
ratio R of the IC50 values for the M1 and M2 receptors [1]: > 200
IC50 [2, 6]: > 100 µM
Pirenzepine antagonism ED50 i.p. [3]: 3 mg/kg

CN(C)CCCNc1nc(-c2ccc(F)cc2)cs1 [SR 44494 A]
IC50 [1, 5]: 0.8 µM
ratio R of the IC50 values for the M1 and M2 receptors [1]: 100
IC50 [2, 6]: 80 µM
Pirenzepine antagonism ED50 p.o. [3]: 2 mg/kg

Cc1ccccc1-c1csc(NCCCN(C)C)n1 [SR 45001 A]
IC50 [1, 5]: 2.6 µM
ratio R of the IC50 values for the M1 and M2 receptors [1]: 11
IC50 [2, 6]: 30 µM
Pirenzepine antagonism ED50 p.o. [3]: 3 mg/kg

CNCCCNc1nc(-c2c(C)cc(C)cc2C)cs1 [SR 45030 A]
IC50 [1, 5]: 1.6 µM
ratio R of the IC50 values for the M1 and M2 receptors [1]: 50
IC50 [2, 6]: 80 µM
Pirenzepine antagonism ED50 p.o. [3]: 1 mg/kg

CCN(CC)CCNc1nc2c(s1)CCCc1ccccc1-2 [SR 44323 A]
IC50 [1, 5]: 1.7 µM
ratio R of the IC50 values for the M1 and M2 receptors [1]: 5
IC50 [2, 6]: 8.5 µM
Pirenzepine antagonism ED50 i.p. [3]: 10 mg/kg

CCN1CCCC(Nc2nc(-c3c(C)cc(C)cc3C)cs2)C1 (centres unmarked) [SR 44965 A]
IC50 [1, 5]: 1.2 µM
ratio R of the IC50 values for the M1 and M2 receptors [1]: 50
IC50 [2, 6]: 60 µM
Pirenzepine antagonism ED50 p.o. [3]: 3 mg/kg

Cl.Cl.c1ccc2c(c1)CCc1sc(NCCN3CCOCC3)nc1-2 [SR 44273 A, 2-(2-Morpholinoethylamino)-4,5-dihydronaphtho[1,2-d]thiazole dihydrochloride]
LD50 at 24 h [4]: > 100 mg/kg

Cc1cc(C)c(-c2csc(NCCc3ccncc3)n2)c(C)c1 [SR 44856 A]
IC50 [1, 5]: 0.3 µM
ratio R of the IC50 values for the M1 and M2 receptors [1]: > 300
IC50 [2, 6]: > 100 µM
Pirenzepine antagonism ED50 p.o. [3]: 3 mg/kg

Cc1nc(NCCCN(C)C)sc1-c1ccccc1 [SR 44467 A]
IC50 [1, 5]: 1.5 µM
ratio R of the IC50 values for the M1 and M2 receptors [1]: 25
IC50 [2, 6]: 38 µM
Pirenzepine antagonism ED50 p.o. [3]: 3 mg/kg

CCN(CC)CCCNc1ncc(-c2ccccc2)s1 [SR 44346 A]
IC50 [1, 5]: 2 µM
ratio R of the IC50 values for the M1 and M2 receptors [1]: 12.5
IC50 [2, 6]: 25 µM
Pirenzepine antagonism ED50 i.p. [3]: 1 mg/kg

Cc1cc(C)c(-c2csc(NCCCN3CCN(C)CC3)n2)c(C)c1 [SR 44915 A]
IC50 [1, 5]: 0.4 µM
ratio R of the IC50 values for the M1 and M2 receptors [1]: 100
IC50 [2, 6]: 40 µM
Pirenzepine antagonism ED50 p.o. [3]: 3 mg/kg

CCN(CC)CCNc1nc2c(s1)CCCc1ccc([N+](=O)[O-])cc1-2.Cl.Cl [SR 44411 A, 2-[(2-Diethylaminoethyl)amino]-9-nitro-5,6-dihydro-4H-benzo[6,7]cyclohepta[1,2-d]thi azole dihydrochloride]
IC50 ([1]; read-out: IC50 3H-PZ (M1)): 0.9 µM
ratio R of the IC50 values for the M1 and M2 receptors [1]: 7
IC50 [2, 6]: 6.7 µM
Pirenzepine antagonism ED50 i.p. [3]: 15 mg/kg

CCN(CC)CCNc1ncc(-c2ccccc2)s1.Cl.Cl [SR 44318 A, 2-[(2-Diethylaminoethyl)amino]-5-phenylthiazole dihydrochloride]
IC50 ([1]; read-out: IC50 3H-PZ (M1)): 3.4 µM
ratio R of the IC50 values for the M1 and M2 receptors [1]: 11
IC50 [2, 6]: 38 µM
Pirenzepine antagonism ED50 i.p. [3]: 1.5 mg/kg
Pirenzepine antagonism ED50 p.o. [3]: 3 mg/kg

O=C1CCCN1CC#CCN1CCCC1 [Oxotremorine, reference compound]
IC50 [1]: 0.24 µM
ratio R of the IC50 values for the M1 and M2 receptors [1]: 1
IC50 [2]: 0.2 µM
Pirenzepine antagonism ED50 i.p. [3]: 0.005 mg/kg

CN(C)CCCNc1nc(-c2ccccc2)c(-c2ccccc2)s1 [SR 45015 A]
IC50 [1, 5]: 0.3 µM
ratio R of the IC50 values for the M1 and M2 receptors [1]: 13
IC50 [2, 6]: 4 µM
Pirenzepine antagonism ED50 p.o. [3]: 0.70 mg/kg

Cc1cc(C)c(-c2csc(NCCCN3CCCC3)n2)c(C)c1 [SR 44964 A]
IC50 [1, 5]: 0.9 µM
ratio R of the IC50 values for the M1 and M2 receptors [1]: 31
IC50 [2, 6]: 28 µM
Pirenzepine antagonism ED50 p.o. [3]: 3 mg/kg

CCN(CC)CCCNc1nc2c(s1)CCCc1ccccc1-2 [SR 44326 A]
IC50 [1, 5]: 2.2 µM
ratio R of the IC50 values for the M1 and M2 receptors [1]: > 45
IC50 [2, 6]: > 100 µM
Pirenzepine antagonism ED50 i.p. [3]: 3 mg/kg
